One data set has as its target CYP2D6 (Homo sapiens, UniProt P10635). As to conditions: recombinant enzyme.
In data set [1] the target is T1, CYP3A4 (Homo sapiens, UniProt P08684). As to conditions: recombinant enzyme.
Another data set relates to CYP2D6 and 2J2. The following applies: catalyzed by CYP2D6 and 2J2; cited from earlier work.
In data set [2] the test system is others of recombinant CYP1A2, 2B6, 2C8, 2C9, 2C19, 2D6 and 3A4. The following applies: recombinant enzyme.
In another data set the test system is cytochrome P450s. As to conditions: cited from earlier work.
The target in data set [3] is T1, CYP3A4. The following applies: cited from earlier work.
In the next data set the target is T2, CYP2C8 (Homo sapiens, UniProt P10632).
T2 sequence (P10632 1-490): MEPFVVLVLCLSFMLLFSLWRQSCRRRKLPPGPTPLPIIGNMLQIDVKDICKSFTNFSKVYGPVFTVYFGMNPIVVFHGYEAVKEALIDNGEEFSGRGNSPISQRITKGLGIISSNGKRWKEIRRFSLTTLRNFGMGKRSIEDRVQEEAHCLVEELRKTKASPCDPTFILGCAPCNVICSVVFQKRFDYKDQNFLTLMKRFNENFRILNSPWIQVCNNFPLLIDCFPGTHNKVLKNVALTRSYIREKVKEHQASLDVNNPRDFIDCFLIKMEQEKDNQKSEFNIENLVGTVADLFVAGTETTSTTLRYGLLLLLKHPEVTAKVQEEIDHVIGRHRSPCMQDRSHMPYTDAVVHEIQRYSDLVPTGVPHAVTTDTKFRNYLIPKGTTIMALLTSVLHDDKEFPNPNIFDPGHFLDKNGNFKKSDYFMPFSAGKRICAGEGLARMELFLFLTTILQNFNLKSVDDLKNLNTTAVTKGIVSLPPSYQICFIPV
Nature of the data set: P450 isoform phenotyping assay, parent compound depletion, recombinant CYP2C8. Format: in vitro ADME. As to conditions: recombinant CYP2C8, 1 µM compound.

The text below walks through data of paper PMC3155282 (ACS Medicinal Chemistry Letters, 2011).

Structures are written as SMILES.

T1 sequence (P08684 whole entry): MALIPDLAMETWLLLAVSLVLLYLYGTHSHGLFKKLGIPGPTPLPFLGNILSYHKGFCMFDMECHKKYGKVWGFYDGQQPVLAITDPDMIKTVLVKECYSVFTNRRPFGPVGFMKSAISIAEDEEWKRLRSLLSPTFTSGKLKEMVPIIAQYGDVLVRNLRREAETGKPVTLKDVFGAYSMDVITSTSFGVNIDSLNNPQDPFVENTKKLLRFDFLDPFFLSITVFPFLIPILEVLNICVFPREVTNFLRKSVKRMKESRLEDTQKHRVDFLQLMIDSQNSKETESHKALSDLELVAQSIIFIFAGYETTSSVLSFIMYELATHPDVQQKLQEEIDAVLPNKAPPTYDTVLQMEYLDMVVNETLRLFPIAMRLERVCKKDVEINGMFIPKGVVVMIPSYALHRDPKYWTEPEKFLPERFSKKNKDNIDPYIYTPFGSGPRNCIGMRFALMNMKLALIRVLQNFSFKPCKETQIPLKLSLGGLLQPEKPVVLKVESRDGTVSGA
CYP2D6, sequence (P10635 whole entry): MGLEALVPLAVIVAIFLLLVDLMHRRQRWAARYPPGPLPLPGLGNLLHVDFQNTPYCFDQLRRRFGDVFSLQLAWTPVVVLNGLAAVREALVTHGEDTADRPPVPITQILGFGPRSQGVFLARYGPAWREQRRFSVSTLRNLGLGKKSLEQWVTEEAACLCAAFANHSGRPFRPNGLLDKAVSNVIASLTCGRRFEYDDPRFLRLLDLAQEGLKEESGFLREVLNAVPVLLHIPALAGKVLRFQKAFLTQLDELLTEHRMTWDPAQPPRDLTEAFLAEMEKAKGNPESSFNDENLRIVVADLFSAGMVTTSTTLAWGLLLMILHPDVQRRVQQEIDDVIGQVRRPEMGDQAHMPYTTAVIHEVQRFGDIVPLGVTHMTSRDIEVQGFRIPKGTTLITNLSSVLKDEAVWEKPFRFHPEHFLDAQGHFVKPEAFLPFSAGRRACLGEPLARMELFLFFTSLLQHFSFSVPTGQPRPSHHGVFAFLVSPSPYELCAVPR

On to `COc1ccc(CCN2CCC(Nc3nc4ccccc4n3Cc3ccc(F)cc3)CC2)cc1` [astemizole], for which, on CYP2D6, the “half-life (t1/2) of parent compound depletion from phenotyping assay, 2D6” value (“half-life … 2D6” for short) was 3A4 (1.5 m), 2D6 (4.0 m), others (>60 m). On CYP3A4 [1], the “half-life (t1/2) of parent compound depletion from phenotyping assay, 3A4” value (from here on “half-life … 3A4”) is reported as 3A4 (1.5 m), 2D6 (4.0 m), others (>60 m). In addition, the “conversion from astemizole to O-desmethylastemizole” value in the data set on CYP2D6 and 2J2 is reported as 67%. Moreover, the “half-life (t1/2) of parent compound depletion from phenotyping assay, others” value (shortened to “half-life … others”) in data set [2] is given as 3A4 (1.5 m), 2D6 (4.0 m), others (>60 m). Moreover, the “N-dealkylation (major or minor pathway)” value in the data set on cytochrome P450s is on record as “minor”. The “conversion from astemizole to benzimidazole hydroxylated metabolite” value on CYP3A4 [3] is listed as 25%.

Take `CN1CCC(N(Cc2ccccc2)c2ccccc2)CC1` [bamipine]: the “N-dealkylation (major or minor pathway)” value in the data set with cytochrome P450s is reported as “major”.

On to `O=C(CCCN1CCC(n2c(O)nc3ccccc32)CC1)c1ccc(F)cc1` [benperidol], for which the “half-life … 2D6” value at CYP2D6 was 3A4 (3.3 m), 2D6 (10.4 m), 2C8 (43.8 m), others (>60 m). The “half-life … 3A4” value on CYP3A4 [1] is listed as 3A4 (3.3 m), 2D6 (10.4 m), 2C8 (43.8 m), others (>60 m). Also, the “half-life … others” value in data set [2] is reported as 3A4 (3.3 m), 2D6 (10.4 m), 2C8 (43.8 m), others (>60 m). Besides, the “N-dealkylation (major or minor pathway)” value in the data set with cytochrome P450s is given as “major”. In addition, at CYP2C8, the “half-life (t1/2) of parent compound depletion from phenotyping assay, 2C8” value is reported as 3A4 (3.3 m), 2D6 (10.4 m), 2C8 (43.8 m), others (>60 m).

`COc1cc(N)c(Cl)cc1C(=O)NC1CCN(CCCOc2ccc(F)cc2)CC1OC` (centres unmarked) [cisapride]: the “half-life … others” value in data set [2] was 3A4 (<5 m), others (>60 m). For the same compound, the “N-dealkylation (major or minor pathway)” value in the data set on cytochrome P450s was “major”.

For the compound `COc1cc(N)c(Cl)cc1C(=O)NC1CCN(Cc2ccccc2)CC1` [clebopride], at CYP3A4 [1], the “half-life … 3A4” value is 3A4 (<5 m), others (>60 m). Also, the “half-life … others” value in data set [2] is 3A4 (<5 m), others (>60 m). Further, in the data set with cytochrome P450s, the “N-dealkylation (major or minor pathway)” value was “major”.

As to `O=C(NC1CCN(CCc2c[nH]c3ccccc23)CC1)c1ccccc1` [indoramin], at CYP2D6, the “contribution of CYP2D6 to metabolism” value is recorded as “contributed significantly” and the “half-life … 2D6” value was 2D6 (<5 m), 3A4 (16.0 m), others (>60 m). The “half-life … 3A4” value at CYP3A4 [1] was 2D6 (<5 m), 3A4 (16.0 m), others (>60 m). Further, the “half-life … others” value in data set [2] is given as 2D6 (<5 m), 3A4 (16.0 m), others (>60 m). For the same compound, the “N-dealkylation (major or minor pathway)” value with cytochrome P450s was “minor”.

On to `O=c1[nH]c2ccccc2n1C1CCN(CCCC(c2ccc(F)cc2)c2ccc(F)cc2)CC1` [pimozide], for which the “half-life … 2D6” value at CYP2D6 is 3A4 (2.7 m), 2D6 (3.2 m), others (>60 m). In addition, the “half-life … 3A4” value on CYP3A4 [1] is 3A4 (2.7 m), 2D6 (3.2 m), others (>60 m). In addition, the “half-life … others” value in data set [2] is given as 3A4 (2.7 m), 2D6 (3.2 m), others (>60 m). In the data set with cytochrome P450s, the “N-dealkylation (major or minor pathway)” value is “major”.

For the compound `CN(c1nc2ccccc2s1)C1CCN(CC(O)COc2ccc(F)cc2)CC1` (centres unmarked) [sabeluzole], at CYP2D6, the “contribution of CYP2D6 to metabolism” value is recorded as “contributed significantly” and the “half-life … 2D6” value is given as 2D6 (1.5 m), 3A4 (<5.0 m), others (>60 m). Besides, the “half-life … 3A4” value on CYP3A4 [1] was 2D6 (1.5 m), 3A4 (<5.0 m), others (>60 m). The “half-life … others” value in data set [2] was 2D6 (1.5 m), 3A4 (<5.0 m), others (>60 m). Besides, in the data set on cytochrome P450s, the “N-dealkylation (major or minor pathway)” value is reported as “minor”.

In the case of `O=C(CCCN1CCC(n2c(=S)[nH]c3ccccc32)CC1)c1ccc(F)cc1` [timiperone], the “N-dealkylation (major or minor pathway)” value in the data set on cytochrome P450s is on record as “major”.
